Source: patent US12286474B2, “Anti-CD38 antibodies for treatment of acute myeloid leukemia” (Janssen Biotech, Inc., priority 2014, dated 2025)

How the values were obtained:
AML cell lines [1] = test: CDC, summary over AML cell lines; type: cell-based
Experimental: (§1) Target cells were harvested and adjusted to a concentration of 80×10^4 cells/ml. Twelve μl of target cells were added to wells of a 96-well plate, and serial dilution of antibodies added onto the cells. The wells were incubated for 15 minutes, after which human serum high in complement was added at a final concentration of 10%. Reaction mixture was incubated for 21/2 hours at 37° C., and cell lysis was measured using the CellTiter-Glo® assay (Promega).

THP-1 [2] = test: CDC (cell lysis, CellTiter-Glo); type: cell-based; settings: human serum 10%
Experimental: as §1

NB4 [3] = test: CDC (cell lysis, CellTiter-Glo); type: cell-based; settings: human serum 10%
Experimental: as §1

MV-4-11 [4] = test: CDC (cell lysis, CellTiter-Glo); type: cell-based; settings: human serum 10%
Experimental: as §1

MOLM-16 [5] = test: CDC (cell lysis, CellTiter-Glo); type: cell-based; settings: human serum 10%
Experimental: as §1

ML-2 [6] = test: CDC (cell lysis, CellTiter-Glo); type: cell-based; settings: human serum 10%
Experimental: as §1

MOLM-13 [7] = test: CDC (cell lysis, CellTiter-Glo); type: cell-based; settings: human serum 10%
Experimental: as §1

AML 7577 model = test: Patient-derived xenograft (PDX) AML 7577 model, leukemic burden; type: in vivo, NSG mice; settings: peripheral blood, i.p. 10 mg/kg once a week, 5 weeks
Description: (§2) Patient tumor models AML 3406, AML 7577 and AML 8096 were used in the study.
AML 7577 model: Leukemic cells were collected from a person with AML (FAB subtype M5). Patient had normal karyotype and following mutations: IDH2(R140Q); FLT3-ITD; DNMT3A R882H, NPM1, CEBPA insertion (SNP). Patient has a history of polycythemia versa, and received idarubicin/cytrabine for induction chemotherapy. Patient also received Hudrea® (hydroxyurea).
(§3) 5 million AML MNCs were T-cell depleted and transplanted via tail vein into 6-8 weeks old sub-lethally irradiated NSG mice (n=10 per group). 4 to 6 weeks post-engraftment, bone marrow aspirates were collected from each mouse and were analyzed by flow cytometry to determine the level of leukemia engraftment (% of human CD45^+CD33^+/− cells). Based on engraftment levels, mice were randomized and conditioned with either IgG1 or daratumumab (DARA, pre-dosing at 0.5 mg/kg). 24 hours later, mice were untreated (Ctrl) or treated for 5 consecutive weeks with DARA or IgG1 alone (i.p, 10 mg/kg once a week). 2-3 days after the last treatment, mice were sacrificed and bone marrow, spleen, peripheral blood and plasma were collected for analysis. […]

THP-1 [8] = test: In vitro ADCC with PBMC effector cells; type: cell-based; settings: PBMC effector cells at ratio 50:1, 6 hours
Experimental: (§4) In vitro ADCC assays were performed using AML tumor cell lines and Peripheral Blood Mononuclear Cells (PBMC) as effector cells at a ratio of 50:1. One hundred μl of target (tumor) cells (1×10^4 cells) were added to wells of 96-well U-bottom plates. An additional 100 μl was added with or without antibody, and the plates were incubated for 30 minutes at room temperature (RT) before adding effector cells (PBMC). Seventy five μl of PBMCs at concentration 6.66×10^6 cells/ml was added to the wells of the plates, and the plates were incubated at 37° C. for 6 hours. Plates were centrifuged at 250 g for 4 minutes, 50 μl of supernatant removed per well and cell lysis was measured using the CellTiter-Glo® assay (Promega).

NB4 [9] = test: In vitro ADCC with PBMC effector cells; type: cell-based; settings: PBMC effector cells at ratio 50:1, 6 hours
Experimental: as §4

MV-4-11 [10] = test: In vitro ADCC with PBMC effector cells; type: cell-based; settings: PBMC effector cells at ratio 50:1, 6 hours
Experimental: as §4

MOLM-16 [11] = test: In vitro ADCC with PBMC effector cells; type: cell-based; settings: PBMC effector cells at ratio 50:1, 6 hours
Experimental: as §4

ML-2 [12] = test: In vitro ADCC with PBMC effector cells; type: cell-based; settings: PBMC effector cells at ratio 50:1, 6 hours
Experimental: as §4

MOLM-13 [13] = test: In vitro ADCC with PBMC effector cells; type: cell-based; settings: PBMC effector cells at ratio 50:1, 6 hours
Experimental: as §4

[14] = tested on: CD38 on leukemia blasts (CD45+CD33+ positive cells); test: CD38 expression on leukemic blasts in PDX AML 3406 model; type: in vivo, NSG mice; settings: after 5 weeks of treatment
Experimental: (§5) 5 million AML MNCs were T-cell depleted and transplanted via tail vein into 6-8 weeks old sub-lethally irradiated NSG mice (n=10 per group). 4 to 6 weeks post-engraftment, bone marrow aspirates were collected from each mouse and were analyzed by flow cytometry to determine the level of leukemia engraftment (% of human CD45^+CD33^+/− cells). Based on engraftment levels, mice were randomized and conditioned with either IgG1 or daratumumab (DARA, pre-dosing at 0.5 mg/kg). 24 hours later, mice were untreated (Ctrl) or treated for 5 consecutive weeks with DARA or IgG1 alone (i.p, 10 mg/kg once a week). 2-3 days after the last treatment, mice were sacrificed and bone marrow, spleen, peripheral blood and plasma were collected for analysis. Flow cytometry was performed to assess percentage of human CD45^+CD33^+ cells in the BM, SPL and PB of 3 AML patients engrafted in NSG mice (AML 3406 model: FIG. 2A; AML 7577 model: FIG. 2B, AML 8096 model: FIG. 2C) and absolute number of the human CD45^+CD33^+ cells in bone marrow (FIG. 3A), spleen (FIG. 3B) and peripheral blood (FIG. 3C) of one representative AML patient.
Effect of daratumumab on CD38 expression on leukemic blasts was assessed in one representative AML model described in Example 3 after 5 weeks of treatment with daratumumab or isotype control using PE-labeled anti-CD38 antibody (R&D Systems).

AML cell lines [15] = test: Apoptosis, summary over AML cell lines; type: cell-based
Experimental: (§6) One ml of target cells (5×10^5 cells/ml) were added to the well of a 24-well plate, together with test antibody (1 μg/ml) in the presence or absence of rabbit anti-huIgG (10 μg/ml; F(ab′)2 Fcγ-specific). Cells were incubated for 22 hours (5% CO2, 37° C.). Thereafter, cells were harvested (1000 rpm, 5 min) and washed twice in PBS (1000 rpm, 5 min). Cells were resuspended in 250 μl binding buffer (Annexin-V Apoptosis kit, BD Biosciences) according to manufacturer's instruction, followed by flow cytometry analysis.
(§7) Apoptosis was measured by both early and late apoptosis (Q2 and Q3 in FIG. 1A and FIG. 1B).

AML 8096 model = test: Patient-derived xenograft (PDX) AML 8096 model, leukemic burden; type: in vivo, NSG mice; settings: spleen, i.p. 10 mg/kg once a week, 5 weeks
Description: as §2
AML 8096 model: Leukemic cells were collected from a person with AML (FAB subtype M2). White blood cell count was 20×10e^9/L, from which 70% were blast cells. Patient had normal karyotype with wild type TP53, FLT3, NPM1, and insertion 570-587, 3GCACCC>4GCACCC in CEBPA exon1. Patient has a history of polycythemia versa, and received idarubicin/cytrabine for induction chemotherapy. Patient also received Hudrea® (hydroxyurea).
as §3

AML cell lines [16] = test: ADCC, summary over AML cell lines; type: cell-based
Experimental: as §4

AML 3406 model = test: Patient-derived xenograft (PDX) AML 3406 model, leukemic burden; type: in vivo, NSG mice; settings: for tumor burden (% leukemic CD45+CD33+ cells): i.p. 10 mg/kg once a week, 5 weeks
Description: as §2
AML3406 model: Patient tumor cells were positive for FLT-3ITD. Patient has a history of polycythemia versa, and received idarubicin/cytrabine for induction chemotherapy. Patient also received Hudrea® (hydroxyurea).
as §5

THP-1 [17] = test: Apoptosis (Annexin-V flow cytometry); type: cell-based; settings: antibody 1 μg/ml, 22 hours, early and late apoptosis
Experimental: as §6, §7

NB-4 AML cell line [18] = test: Apoptosis (Annexin-V flow cytometry); type: cell-based; settings: for daratumumab-induced apoptosis: NB-4 cell line
Experimental: as §6, §7

MV-4-11 [19] = test: Apoptosis (Annexin-V flow cytometry); type: cell-based; settings: antibody 1 μg/ml, 22 hours, early and late apoptosis
Experimental: as §6, §7

MOLM-16 [20] = test: Apoptosis (Annexin-V flow cytometry); type: cell-based; settings: antibody 1 μg/ml, 22 hours, early and late apoptosis
Experimental: as §6, §7

ML-2 [21] = test: Apoptosis (Annexin-V flow cytometry); type: cell-based; settings: antibody 1 μg/ml, 22 hours, early and late apoptosis
Experimental: as §6, §7

MOLM-13 [22] = test: Apoptosis (Annexin-V flow cytometry); type: cell-based; settings: antibody 1 μg/ml, 22 hours, early and late apoptosis
Experimental: as §6, §7

NB-4 AML cell line [23] = test: CD38 surface expression by FACS with PE-labeled anti-CD38 antibody; type: cell-based; settings: 24 hours; for PE-CD38 molecules/cell: NB-4
Experimental: Effect of ATRA on CD38 surface expression was assessed in NB-4 AML cell line. Tumor cells were incubated at 37° C. for 24 hours in the presence or absence of 10 nM or 100 nM ATRA. After 24 hour incubation, the cells were harvested and stained for CD38. ATRA induced ˜10-fold increase in CD38 receptors in the NB-4 cell line. CD38 surface expression was assessed using FACS using PE-labeled anti-CD38 antibody (R&D Systems) (Table 2).

Question: Which results are given for daratumumab?
Answer: CDC (AML cell lines [1]): did not induce significant ADCC or CDC; CDC (THP-1 [2]): 5%; CDC (NB4 [3]): 4%; CDC (MV-4-11 [4]): 0%; CDC (MOLM-16 [5]): 5%; CDC (ML-2 [6]): 0%; CDC (MOLM-13 [7]): 0%; tumor burden (% leukemic CD45+CD33+ cells) (AML 7577 model): reduced tumor burden; ADCC (THP-1 [8]): 11.30%; ADCC (NB4 [9]): 18.30%; ADCC (MV-4-11 [10]): 2.30%; ADCC (MOLM-16 [11]): 18.20%; ADCC (ML-2 [12]): 6.30%; ADCC (MOLM-13 [13]): 9.40%; percentage of CD38-positive AML blasts ([14]; bone marrow, spleen and peripheral blood (FIG. 4B)): reduced; expression of CD38 on leukemia blasts ([14]; bone marrow): reduced expression of CD38; expression of CD38 on leukemia blasts ([14]; peripheral blood): reduced expression of CD38; expression of CD38 on leukemia blasts ([14]; spleen): reduced expression of CD38; AML cell killing by apoptosis (AML cell lines [15]): induced AML cell killing by apoptosis; tumor burden (% leukemic CD45+CD33+ cells) (AML 8096 model): reduced tumor burden; ADCC (AML cell lines [16]): did not induce significant ADCC or CDC; total leukemic burden (number of CD45+CD33+ cells per four bones) (AML 3406 model; bone marrow, Ctrl vs Dara): no significant difference; total leukemic burden (number of CD45+CD33+ cells per μl blood) (AML 3406 model; peripheral blood): significantly reduced total leukemic burden; tumor burden (% leukemic CD45+CD33+ cells) (AML 3406 model; peripheral blood): reduced tumor burden; total leukemic burden (number of CD45+CD33+ cells per spleen) (AML 3406 model; spleen): significantly reduced total leukemic burden; tumor burden (% leukemic CD45+CD33+ cells) (AML 3406 model; spleen): reduced tumor burden; Apoptosis (THP-1 [17]): 5-7%; Apoptosis (NB-4 AML cell line [18]; NB4, antibody 1 μg/ml, 22 hours, early and late apoptosis): 18%; daratumumab-induced apoptosis (NB-4 AML cell line [18]; with crosslinking antibody (FIG. 1B)): 18.3%; daratumumab-induced apoptosis (NB-4 AML cell line [18]; without crosslinking antibody (FIG. 1A)): 19.2%; Apoptosis (MV-4-11 [19]): 10-12%; Apoptosis (MOLM-16 [20]): 20-30%; Apoptosis (ML-2 [21]): 5%; Apoptosis (MOLM-13 [22]): 10-15%

Question: How did the PE-CD38 molecules/cell (NB-4 AML cell line [23]; 10 nM ATRA) turn out when `CC1=C(/C=C/C(C)=C/C=C/C(C)=C/C(=O)O)C(C)(C)CCC1` [ATRA, all-trans-retinoic acid] was run?
Answer: 185737 molecules/cell

Question: And the PE-CD38 molecules/cell (NB-4 AML cell line [23]; 100 nM ATRA)?
Answer: 210570 molecules/cell

Question: What about the “increase in CD38 receptors” value (NB-4 AML cell line [23]; NB-4 cell line, 10 nM or 100 nM ATRA) of the same molecule?
Answer: ~10 fold
